# Test results from paper PMC5971468, “Small molecules that inhibit the late stage of Munc13-4–dependent secretory granule exocytosis in mast cells” (The Journal of Biological Chemistry, 2018).
# What was measured:
# Munc13-4 [1] = target: T1, Munc13-4 (Homo sapiens, UniProt Q70J99); test: SNARE-dependent liposome lipid-mixing FRET assay with purified Munc13-4 + Ca2+; liposome flotation binding assay; format: biochemical
# T1 construct: gene UNC13D; His6-tagged human Munc13-4 protein produced in insect Sf9 cells
# T1 sequence (Q70J99 whole entry): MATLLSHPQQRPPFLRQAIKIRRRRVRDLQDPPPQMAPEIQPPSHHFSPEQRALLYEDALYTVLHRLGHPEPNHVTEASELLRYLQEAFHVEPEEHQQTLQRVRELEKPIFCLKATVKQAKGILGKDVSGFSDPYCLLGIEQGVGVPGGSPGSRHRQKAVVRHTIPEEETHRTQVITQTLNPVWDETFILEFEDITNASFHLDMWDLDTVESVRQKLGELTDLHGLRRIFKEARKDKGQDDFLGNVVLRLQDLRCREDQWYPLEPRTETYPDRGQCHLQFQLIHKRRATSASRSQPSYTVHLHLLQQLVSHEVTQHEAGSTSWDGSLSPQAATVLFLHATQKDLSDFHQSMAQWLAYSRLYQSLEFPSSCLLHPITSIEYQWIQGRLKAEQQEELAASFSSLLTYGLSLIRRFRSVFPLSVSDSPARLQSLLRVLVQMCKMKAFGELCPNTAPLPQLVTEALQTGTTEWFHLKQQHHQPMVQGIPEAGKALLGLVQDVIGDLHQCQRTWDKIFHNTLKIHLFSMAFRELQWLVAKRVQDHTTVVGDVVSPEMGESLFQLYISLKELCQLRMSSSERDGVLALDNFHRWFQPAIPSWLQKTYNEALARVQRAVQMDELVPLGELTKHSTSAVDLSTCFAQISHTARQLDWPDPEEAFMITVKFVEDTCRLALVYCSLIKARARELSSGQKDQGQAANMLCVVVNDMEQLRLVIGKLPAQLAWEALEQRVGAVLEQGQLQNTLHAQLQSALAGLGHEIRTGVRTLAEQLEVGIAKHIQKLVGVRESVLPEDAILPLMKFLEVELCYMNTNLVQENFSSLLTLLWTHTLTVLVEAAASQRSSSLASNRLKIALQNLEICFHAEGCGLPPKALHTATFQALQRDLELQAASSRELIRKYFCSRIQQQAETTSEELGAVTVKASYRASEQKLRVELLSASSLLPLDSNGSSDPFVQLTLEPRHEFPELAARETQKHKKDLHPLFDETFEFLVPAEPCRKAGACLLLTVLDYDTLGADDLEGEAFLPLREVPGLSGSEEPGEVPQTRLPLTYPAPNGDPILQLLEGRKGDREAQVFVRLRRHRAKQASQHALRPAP
# T1 sequence (P32851 whole entry partner): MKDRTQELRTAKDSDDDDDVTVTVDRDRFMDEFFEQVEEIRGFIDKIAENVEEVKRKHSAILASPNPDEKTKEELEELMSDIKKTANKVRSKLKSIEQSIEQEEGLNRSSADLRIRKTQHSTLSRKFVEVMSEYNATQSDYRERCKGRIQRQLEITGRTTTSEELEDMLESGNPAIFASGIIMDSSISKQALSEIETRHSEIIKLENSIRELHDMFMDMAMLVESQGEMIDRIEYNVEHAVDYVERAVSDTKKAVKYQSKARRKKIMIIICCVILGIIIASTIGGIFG
# T1 sequence (P60879 whole entry partner): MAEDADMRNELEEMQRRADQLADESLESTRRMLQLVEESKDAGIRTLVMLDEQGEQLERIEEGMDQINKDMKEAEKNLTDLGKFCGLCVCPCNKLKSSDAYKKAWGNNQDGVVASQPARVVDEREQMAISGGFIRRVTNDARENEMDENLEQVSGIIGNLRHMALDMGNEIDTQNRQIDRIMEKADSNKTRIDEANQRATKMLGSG
# T1 sequence (P63044 2-116 partner): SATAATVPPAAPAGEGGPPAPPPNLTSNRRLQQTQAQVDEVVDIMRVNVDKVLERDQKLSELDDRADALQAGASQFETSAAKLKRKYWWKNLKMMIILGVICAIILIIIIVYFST
# Munc13-4 [2] = target: T1, Munc13-4; test: SNARE-dependent liposome lipid-mixing FRET assay with purified Munc13-4 + Ca2+; format: biochemical
Compound,IC50 (Munc13-4 [1]),IC50 (Munc13-4 [2])
CCn1nc(C(=O)N(CCCN(C)C)c2nc3c(C)ccc(Cl)c3s2)cc1C [bexin-1],~5 µM,
COc1ccc2sc(N(CCCN(C)C)C(=O)c3ccc(S(=O)(=O)N4CCCc5ccccc54)cc3)nc2c1 [bexin-3],,~5 µM
